Experimental data taken from patent US20220135564A1, “DEUTERATED MITRAGYNINE ANALOGS AS SAFER OPIOID MODULATORS IN THE MITRAGYNINE CLASS” (The Trustees of Columbia University in the City of New York, priority 2019, published 2022).
Where a name gives a salt, the structure may show the parent alone.

Assays:
male mice (C57BL/6J) = assay: Rotarod test in mice (motor coordination); format: in vivo, mouse; settings: male C57BL/6J mice, s.c., cumulative 3, 10, 30 mg/kg, compared to vehicle
Description: The rotarod test is useful for measuring the motor coordination of rodents and therefore, for identifying test drugs that induce ataxic effects. 3-Dehydromitragynine (DHM) reduces the performance of mice in this test in a dose-dependent manner; indicating an impairment of motor coordination by this compound (FIG. 1).
Animals. This study was conducted using male C57BL/6J mice, 7 weeks of age (n=10/treatment), purchased from The Jackson Laboratory (Bar Harbor, Me.). Animals were housed in groups of five and allowed to acclimate for 1 week prior to testing. Mice had ad libitum access to food and water and were maintained on a 12-hour light/dark cycle. All testing was done in the light cycle.
Drug. DHM hydrochloride was dissolved in double-distilled H2O containing 10% N-methyl-2-pyrrolidone (NMP). Drug or vehicle was administered subcutaneously 15 minutes prior to the start of behavioral testing at a volume of 10 mL/kg body weight. Dosing was performed cumulatively at 3, 10, and 30 mg/kg, with 1 hour between injections.
Rotarod Testing. On the test day, animals were acclimated to the testing room for 1 hour. An accelerating rotarod (Model 7650, UGO Basile, Comeria, VA, Italy) was used to measure the motor coordination of the animals. Time on the rotarod was measured by stopwatch, starting when animals were placed on the rod and ending at the time the animal fell off the apparatus. […]

[1] = tested on: mice (129Sv6 or CD-1 strain); assay: Lethality assay in mice; format: in vivo, mouse; settings: s.c., lethality 24 h after administration
Description: Lethality Assay. Groups of mice (n=6 per dose, 129Sv6 or CD-1 strain) were treated subcutaneously (s.c.) with different doses of DHM and tested for lethality 24 h after drug administration.

[2] = Metabolic profiling of DHM in mouse liver S9 fraction (MS9); format: in vitro ADME; settings: DHM 10 μM, MS9, 60-min incubation, positive ion mode
Description: Analytical System. The metabolic profiling of DHM in mouse liver S9 fraction was performed using high performance liquid chromatography-tandem mass spectrometry (HPLC-MS/MS). A Shimadzu HPLC system comprising 2 isocratic pumps (LC-10ADvp), an autosampler (SIL-30ACMP), a system controller (CBM-20A), a high-pressure switching valve (FCV-20AH6), and a degasser (DGU-14A) was used for separations. Mass spectrometric analyses were performed using an API 4000 QTRAP mass spectrometer from Applied Biosystems/MDS Sciex (AB Sciex) with Turbo V ion source and TurboIonspray interface. Data acquisition and system control was performed using Analyst 1.6.3 software from AB Sciex.
Liver S9 Incubations. Liver S9 fraction pooled from male CD-1 mice was used. Incubations were carried out in 1.1 mL microtubes (in 96-well format plate) in aliquots of 40 μL each (2 for each time point; 0, 6, 16, 30, and 60 min). […] Control incubations were performed replacing the cofactor system with phosphate buffer. Test compound DHM (10 μM, final solvent concentration 1.6%) was incubated with S9 at 37° C., shaking at 100 rpm. Incubations were performed in duplicate. Five time points over 60 minutes (0, 6, 16, 30, and 60 min) were analyzed. […] Supernatants (two time points, 0 and 60 min) were analyzed for remaining parent compound and putative metabolites by HPLC-MS/MS.
General Strategy for Identification of Metabolites. […]

mice = assay: Analgesic activity of DHM in mice; format: in vivo, mouse

CC[C@@H]1C[N+]2=C(C[C@@H]1/C(=C\OC)C(=O)OC)c1[nH]c3cccc(OC)c3c1CC2 [DHM, 3-Dehydromitragynine hydrochloride]
motor coordination, latency to fall in the rotarod test (male mice (C57BL/6J)): dramatically impairs motor coordination
LD50 (95% confidence interval) ([1]; 129Sv6 mice): 48.4 (71.27-342.3) mg/kg
LD50 (95% confidence interval) ([1]; CD-1 mice): 74 (48.08-120.5) mg/kg
% Area [2]: 20%
analgesic activity on its own (mice): does not exhibit analgesic activity
